The text below walks through data of US9517993B2, “Antagonists of the toll-like receptor 1/2 complex” (THE REGENTS OF THE UNIVERSITY OF COLORADO, a body corporate, priority 2012, dated 2016).

The target in experiment [1] is T1, TLR1/2 (Mus musculus, UniProt Q9EPQ1+Q9QUN7).
T1 construct: production of NO in RAW 264.7 macrophage cells; endogenous in cells; host or cells: RAW 264.7
Put plainly: In vitro TLR1/2 inhibition assay (nitric oxide, Pam3CSK4-activated RAW 264.7 macrophages). It is filed as cell-based. The note with it: RAW 264.7 NO assay; for TLR1/2 inhibitory activity (in words, SAR and specificity): Pam3CSK4. How it is done:
To identify novel TLR1/2 complex inhibitors, a cell-based assay was employed to screen the NCI-2 diversity small-molecule library. This 1,363 compound library was chosen from the larger NCI library, which has more than 140,000 compounds, on the basis of availability, purity, and other pharmacological features, such as relative rigidity, number of rotatable bonds and chiral centers, the absence of obvious leaving groups and weakly bounded heteroatoms, etc. Screening was performed in a 96-well plate format using a previously established high-throughput nitric oxide (NO) assay. See e.g. Cheng et al., Small molecule inhibitors of the TLR3/dsRNA complex, J. Am. Chem. Soc. (2011), 133:3764-67, which is herein incorporated by reference in its entirety. Briefly, synthetic triacylated lipoprotein Pam3CSK4 was employed to selectively activate TLR1/2 signaling, resulting in the expression of inducible nitric oxide synthase (iNOS) and the production of NO in RAW 264.7 macrophage cells. NO levels were monitored as an indicator of Pam3CSK4-induced TLR1/2 activation to evaluate the compound's inhibitory activity.
RAW 264.7 (Mouse leukaemic monocyte macrophage cell line) cells were grown in RPMI 1640 medium, supplemented with 10% FBS, penicillin (100 U/mL) and streptomycin ([…]). RAW cells were then planted in 96-well plates at 80,000 cells per well and grown for 24 h in the media descried previously at 37° C. in a 5% CO2 humidified incubator. After 24 h, non-adherent cells and media were removed and replaced with fresh unsupplemented RPMI 1640 medium. The adherent macrophages were treated with Pam3CSK4 (CAS No. 112208-00-1; a synthetic triacylated lipopeptide (LP) that mimics the acylated amino terminus of bacterial LPs) (200 ng/mL) (Invivogen, USA), an agonist of TLR1/2, and then added different concentrates of potential inhibitor. Two rows were only treated with Pam3CSK4 as control. Plates were then incubated for an additional 24 h. Following incubation 100 μL of media was removed and added to flat black 96-well microfluor plates (Thermo Scientific, MA, USA). To each well, 10 μL of 2,3-diaminonaphthalene (0.05 mg/mL in 0.62 M aqueous HCl solution) was added and incubated for 15 min in the dark. The reaction was quenched by addition of 5 μL of a 3 M aqueous NaOH solution and the plate was read on Beckman Coulter DTX880 reader (Beckman Coulter, Calif., USA) with excitation at 365 nm and emission at 450 nm. The nitrite (a stable metabolite of nitric oxide) concentration was determined from a nitrite standard curve. The inhibition rate (%) of NO release was determined using the following formula: Inhibition (%)=[Pam3CSK4(OD450) […]]/[Pam3CSK4 (OD450)−Control (OD450)]×100. The IC50 values for both inhibition and cytotoxicity were determined graphically using software Origin v7.5.

The target of experiment [2] is T2, TLR1/2 (Homo sapiens, UniProt O60603+Q15399). Put plainly: Fluorescence anisotropy competition assay with rhodamine-labeled Pam3CSK4. It is filed as binding. More on the design: His; TLR2 made in house; host or cells: baculovirus; Sf-9 for virus, High Five insect cells for expression (TLR2). The note with it: negative control. From the text: The TLR2 protein was expressed in the baculovirus insect cell expression system using the methods described by Kuroki et al. See Iwaki et al., The extracellular Toll-like receptor 2 domain directly binds peptidoglycan derived from Staphylococcus aureus, J. Biol Chem (2002), 277:24315-20, which is herein incorporated by reference in its entirety. The activity of the TLR2 protein was validated by the fluorescence anisotropy assay. […] Good fitting (R2>0.98) inferred that compound 17 and Pam3CSK4 compete for the same binding site on the TLR1/2 dimeric surface.
In 500 μL Tris buffer (pH=7.2) add 10 μL, (1 ng/mL) rhodamine-labeled Pam3CSK4, test the fluorescence anisotropy at excitation of 549 nm and emission of 566 nm (Horiba Fluorolog 3). And 5 μL (20 μM) TLR1 (R &D) and 5 μL, (20 μM) TLR2 was added into the above buffer, then retest the anisotropy. Following, compound 17 or compound 6 was added in the buffer from the concentration of 0 to 6 μM, and the fluorescence anisotropy was tested in the corresponding concentration.
Fluorescence polarization experiments were performed at 25° C. using a Horiba Fluorolog-3 fluorometer. For direct binding measurements, serial dilutions of TLR1 (R&D, MN) and TLR2 were made in Tris buffer (pH=7.2), and an aliquot (10 μL) of 1 ng/mL rhodamine labeled Pam3CSK4, was added to a total volume of 500 μL. The competition binding solution was incubated for 30 minutes at 25° C. Serial dilutions of compound 17 or compound 6 were incubated with 20 μM TLR1, 20 μM TLR2 and rhodamine-labeled Pam3CSK4 for 30 min at room temperature.
Regression analysis was carried out using Origin 7.5 (OriginLab) ligand binding macro module. […] Equation (1): y=min+(max−min)/(1+10^x-logIC50)(total binding, x=log concentration of and rhodamine-labeled Pam3CSK4, min=nonspecific binding, max=maximum binding in absence of ligand). Equation (2): Ki=IC50/(1+[L]/Kd) ([L]=concentration of rhodamine-labeled Pam3CSK4).
(Fluorescence polarisation rises when a labelled molecule tumbles more slowly, as on binding a larger partner.)
Target sequence in this assay (Q15399 25-580 limits assumed): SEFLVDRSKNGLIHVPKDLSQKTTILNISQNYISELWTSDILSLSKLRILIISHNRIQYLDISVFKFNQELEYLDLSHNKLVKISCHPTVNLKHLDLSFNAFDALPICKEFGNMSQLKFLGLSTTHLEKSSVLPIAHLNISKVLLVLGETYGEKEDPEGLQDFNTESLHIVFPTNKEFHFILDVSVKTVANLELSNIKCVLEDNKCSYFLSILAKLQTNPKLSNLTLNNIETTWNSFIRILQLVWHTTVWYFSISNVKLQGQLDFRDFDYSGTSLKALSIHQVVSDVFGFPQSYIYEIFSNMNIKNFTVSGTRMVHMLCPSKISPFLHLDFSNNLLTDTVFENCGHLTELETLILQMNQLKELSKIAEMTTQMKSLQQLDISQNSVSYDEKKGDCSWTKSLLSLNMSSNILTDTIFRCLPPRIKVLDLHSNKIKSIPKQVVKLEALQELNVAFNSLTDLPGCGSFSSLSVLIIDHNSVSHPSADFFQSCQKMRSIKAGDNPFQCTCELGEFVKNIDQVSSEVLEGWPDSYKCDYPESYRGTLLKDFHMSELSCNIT
Target sequence in this assay (O60603 21-588 limits assumed): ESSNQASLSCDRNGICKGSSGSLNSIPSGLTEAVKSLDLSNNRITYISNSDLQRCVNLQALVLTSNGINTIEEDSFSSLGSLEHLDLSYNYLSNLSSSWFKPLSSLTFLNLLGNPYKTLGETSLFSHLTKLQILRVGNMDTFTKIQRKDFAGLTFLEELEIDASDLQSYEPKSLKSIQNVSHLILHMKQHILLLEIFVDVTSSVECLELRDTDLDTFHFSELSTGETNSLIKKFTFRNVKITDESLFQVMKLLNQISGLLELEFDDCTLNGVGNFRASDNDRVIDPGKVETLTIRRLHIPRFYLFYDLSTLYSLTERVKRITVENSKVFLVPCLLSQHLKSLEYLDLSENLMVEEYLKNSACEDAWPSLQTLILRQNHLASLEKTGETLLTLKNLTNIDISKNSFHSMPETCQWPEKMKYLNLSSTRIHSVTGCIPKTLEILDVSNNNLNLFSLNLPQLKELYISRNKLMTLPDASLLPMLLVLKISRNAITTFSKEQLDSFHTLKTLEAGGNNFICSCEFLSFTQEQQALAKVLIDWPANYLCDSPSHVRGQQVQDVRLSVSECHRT

Experiment [3] deals with T2, TLR1/2. The note with it: read-out: known affinity (Kd); cited from earlier work.
Target sequence in this assay (Q15399 25-786): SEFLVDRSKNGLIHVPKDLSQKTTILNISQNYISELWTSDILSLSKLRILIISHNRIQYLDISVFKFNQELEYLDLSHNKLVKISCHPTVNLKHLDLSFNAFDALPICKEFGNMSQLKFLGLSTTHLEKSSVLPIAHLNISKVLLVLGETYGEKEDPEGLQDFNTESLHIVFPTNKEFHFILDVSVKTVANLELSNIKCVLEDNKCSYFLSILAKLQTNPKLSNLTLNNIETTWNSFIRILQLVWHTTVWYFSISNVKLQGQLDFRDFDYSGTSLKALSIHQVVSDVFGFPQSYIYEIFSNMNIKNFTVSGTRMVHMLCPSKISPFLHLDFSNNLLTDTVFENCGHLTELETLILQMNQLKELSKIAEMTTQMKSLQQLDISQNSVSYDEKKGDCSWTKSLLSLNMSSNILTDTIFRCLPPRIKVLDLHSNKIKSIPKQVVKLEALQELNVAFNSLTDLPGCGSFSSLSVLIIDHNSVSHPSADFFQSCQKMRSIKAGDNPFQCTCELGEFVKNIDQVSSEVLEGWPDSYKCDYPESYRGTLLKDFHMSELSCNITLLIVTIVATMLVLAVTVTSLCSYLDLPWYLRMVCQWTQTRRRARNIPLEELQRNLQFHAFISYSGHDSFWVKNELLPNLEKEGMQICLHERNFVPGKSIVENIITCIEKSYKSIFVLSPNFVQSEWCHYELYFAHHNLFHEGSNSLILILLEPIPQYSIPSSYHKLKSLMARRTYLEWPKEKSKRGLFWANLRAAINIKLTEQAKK
Target sequence in this assay (O60603 21-784): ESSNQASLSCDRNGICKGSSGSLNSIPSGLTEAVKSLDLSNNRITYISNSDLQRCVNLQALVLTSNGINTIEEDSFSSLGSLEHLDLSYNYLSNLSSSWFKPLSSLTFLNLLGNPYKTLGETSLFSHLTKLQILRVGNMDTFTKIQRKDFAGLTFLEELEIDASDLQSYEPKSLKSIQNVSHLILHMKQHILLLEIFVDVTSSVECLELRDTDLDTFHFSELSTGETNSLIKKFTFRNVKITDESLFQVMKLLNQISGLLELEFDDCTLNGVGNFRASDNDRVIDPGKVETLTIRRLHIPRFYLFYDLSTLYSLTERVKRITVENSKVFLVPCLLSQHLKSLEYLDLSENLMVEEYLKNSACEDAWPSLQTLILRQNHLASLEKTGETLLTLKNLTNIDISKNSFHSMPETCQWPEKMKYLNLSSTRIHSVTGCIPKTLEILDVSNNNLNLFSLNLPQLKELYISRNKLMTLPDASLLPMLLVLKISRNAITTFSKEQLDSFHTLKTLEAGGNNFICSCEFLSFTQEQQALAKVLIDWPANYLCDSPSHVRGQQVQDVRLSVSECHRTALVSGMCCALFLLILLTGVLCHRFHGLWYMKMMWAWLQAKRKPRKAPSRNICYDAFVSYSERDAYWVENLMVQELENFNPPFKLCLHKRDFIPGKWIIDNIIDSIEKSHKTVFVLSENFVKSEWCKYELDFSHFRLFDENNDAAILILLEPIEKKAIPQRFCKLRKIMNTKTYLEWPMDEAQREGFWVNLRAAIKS

Where only a bound is given, the exact number is not on record here.

For orientation: IC50 means the concentration that inhibits the measured activity by half. Lower therefore signals inhibition by little substance. For orientation: Kd means the constant that tells how readily two partners part at equilibrium.

T1 sequence (Q9EPQ1 26-795): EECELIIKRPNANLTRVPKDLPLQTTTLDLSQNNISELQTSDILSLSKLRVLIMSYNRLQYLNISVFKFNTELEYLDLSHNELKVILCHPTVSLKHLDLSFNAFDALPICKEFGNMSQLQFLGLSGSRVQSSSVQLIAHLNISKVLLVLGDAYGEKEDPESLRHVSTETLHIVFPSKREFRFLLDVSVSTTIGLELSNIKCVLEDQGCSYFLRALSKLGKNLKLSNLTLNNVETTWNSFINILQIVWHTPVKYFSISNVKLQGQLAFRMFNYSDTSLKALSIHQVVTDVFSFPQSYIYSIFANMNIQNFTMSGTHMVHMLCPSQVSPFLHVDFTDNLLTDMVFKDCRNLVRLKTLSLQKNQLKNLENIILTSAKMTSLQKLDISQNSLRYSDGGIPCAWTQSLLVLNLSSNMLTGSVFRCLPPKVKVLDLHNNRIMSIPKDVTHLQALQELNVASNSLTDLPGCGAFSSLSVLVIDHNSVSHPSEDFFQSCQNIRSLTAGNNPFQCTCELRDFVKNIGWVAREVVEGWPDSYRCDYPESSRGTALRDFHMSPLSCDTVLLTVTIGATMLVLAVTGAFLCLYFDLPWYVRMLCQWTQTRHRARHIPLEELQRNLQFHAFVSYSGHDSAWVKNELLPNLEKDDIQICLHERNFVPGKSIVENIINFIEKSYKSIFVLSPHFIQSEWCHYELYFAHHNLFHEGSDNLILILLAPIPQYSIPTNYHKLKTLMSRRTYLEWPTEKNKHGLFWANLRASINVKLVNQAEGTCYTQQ
T1 sequence (Q9QUN7 25-784): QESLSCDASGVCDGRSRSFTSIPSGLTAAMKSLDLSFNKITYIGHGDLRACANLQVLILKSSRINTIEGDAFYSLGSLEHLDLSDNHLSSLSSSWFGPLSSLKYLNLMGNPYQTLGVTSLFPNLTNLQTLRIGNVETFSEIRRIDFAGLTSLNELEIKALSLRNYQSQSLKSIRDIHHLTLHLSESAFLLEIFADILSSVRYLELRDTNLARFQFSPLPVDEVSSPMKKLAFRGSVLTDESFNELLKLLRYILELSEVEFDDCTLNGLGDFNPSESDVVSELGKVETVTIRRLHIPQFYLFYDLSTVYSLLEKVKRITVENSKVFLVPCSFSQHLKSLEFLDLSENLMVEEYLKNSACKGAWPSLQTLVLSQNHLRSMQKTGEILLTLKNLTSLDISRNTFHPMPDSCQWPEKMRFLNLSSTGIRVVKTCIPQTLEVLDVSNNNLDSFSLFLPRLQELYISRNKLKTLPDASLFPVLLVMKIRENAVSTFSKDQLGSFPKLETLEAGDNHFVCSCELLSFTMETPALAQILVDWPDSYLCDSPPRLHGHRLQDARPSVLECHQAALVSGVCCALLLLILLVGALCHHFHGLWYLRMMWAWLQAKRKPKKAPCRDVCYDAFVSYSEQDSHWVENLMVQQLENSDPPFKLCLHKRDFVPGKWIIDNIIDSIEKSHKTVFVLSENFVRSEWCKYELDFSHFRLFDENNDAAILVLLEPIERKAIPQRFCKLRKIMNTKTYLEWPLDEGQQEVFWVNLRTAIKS

Consider `COc1cc2cccc(O)c(=O)c2c(O)c1O` [compound 4, 3,4,6-trihydroxy-2-methoxy-5H-benzo[7]annulen-5-one], for which the “TLR1/2 inhibitory activity (in words, SAR and specificity)” value at TLR1/2 [1] is “no significant influence to its activity”. Regarding `COc1cc2cccc(OC)c(=O)c2c(OC)c1OC` [compound 6, 2,3,4,6-tetramethoxy-5H-benzo[7]annulen-5-one], the “TLR1/2 inhibitory activity (in words, SAR and specificity)” value on TLR1/2 [1] is “significant decrease of inhibition”. This molecule also displayed a 50% inhibitory concentration (IC50) at TLR1/2 [2] of over 40000 nM.

For the molecule `COc1cc2cc(C(=O)O)cc(O)c(=O)c2c(O)c1O` [compound 10, 3,4,6-trihydroxy-2-methoxy-5-oxo-5H-benzo[7]annulene-8-carboxylic acid], the “decrease of TLR1/2 inhibitory activity versus comparator” value at TLR1/2 [1] (SAR comparison) is recorded as “six-fold”.

For the molecule `COC(=O)c1cc(O)c(=O)c2c(O)c(O)c(OC)cc2c1` [compound 11, Methyl 3,4,6-trihydroxy-2-methoxy-5-oxo-5H-benzo[7]annulene-8-carboxylate], the “TLR1/2 inhibitory activity (in words, SAR and specificity)” value at TLR1/2 [1] is “returned the activity to the NCI35676 level”.

As for `CCCCCCNC(=O)c1cc(O)c(=O)c2c(O)c(O)c(OC)cc2c1` [compound 22, N-hexyl-3,4,6-trihydroxy-2-methoxy-5-oxo-5H-benzo[7]annulene-8-carboxamide], on TLR1/2 [1], the “TLR1/2 inhibitory activity (in words, SAR and specificity)” value was “activity slightly decreased”. For `COc1cc2cc(CO)cc(O)c(=O)c2c(O)c1O` [compound 23, 3,4,6-trihydroxy-8-(hydroxymethyl)-2-methoxy-5H-benzo[7]annulen-5-one], at TLR1/2 [1], the “TLR1/2 inhibitory activity (in words, SAR and specificity)” value is reported as “no significant change in activity”.

On to `COc1cc2cc(C(=O)Nc3ccccc3C)cc(O)c(=O)c2c(O)c1O` [compound 24, 3,4,6-trihydroxy-2-methoxy-5-oxo-N-o-tolyl-5H-benzo[7]annulene-8-carboxamide], for which the “TLR1/2 inhibitory activity (in words, SAR and specificity)” value on TLR1/2 [1] is reported as “no significant change in activity”. With Pam3CSK4, the Kd on TLR1/2 [3] was 1.2 nM.
